Data: patent US20230113539A1, “Traditional Chinese medicine for dispersing lung qi and detoxicating” (priority 2020, published 2023)
Read-outs that look alike come from different tables or passages of the source.

Legend:
[1] = test system: peripheral blood T lymphocyte subset and B lymphocyte; assay: Flow cytometry of peripheral blood T lymphocyte subset and B lymphocyte proportion, same mouse model; format: in vivo, BALB/c mice
HCoV-229E nucleic acid = assay: Nucleic acid detection (viral load) in lung tissue (RT-PCR), same mouse model; format: in vivo, BALB/c mice
GAS, MTL in mouse serum = assay: Gastrin (GAS) and motilin (MTL) in mouse serum (ELISA), same mouse model; format: in vivo, BALB/c mice
Description: (§1) 90 Balb/c mice are taken, SPF-grade, half male and half female, and the body weight is 10-12 g. They are randomly divided into a normal control group, a 229E infection group, a cold-damp control group, a disease-syndrome combination model group of epidemic viruses attacking lungs in mice (hereinafter referred to as an epidemic virus attacking lung model group), a chloroquine phosphate positive drug group, and an interferon α2b positive drug group, and high, medium and low dosage groups of the traditional Chinese medicine granules of the present invention, there are 10 mice in each group. Except for the normal control group and the 229E infection group, the other mice are continuously placed in an artificial climate box with a relative humidity of 90±3%, no wind, and a temperature of 4±2° C. every day, and are taken out after 4 hours of stimulation for 7 consecutive days.
(§2) Except for the normal control group and the cold-damp control group, the other mice are infected with 100 TCID50HCOV-229E virus droplets nasally at 50 μL/mice after mild anesthesia with ether on the 5-th and 6-th days of cold-damp stimulation. The administration of each administration group starts on the day of the first infection, and each dosage group of the traditional Chinese medicine granules of the present invention and the chloroquine phosphate positive drug group are administered by gavage at 0.2 ml/10 g; the normal control group, the cold-damp control group, the 229E infection group, the epidemic virus attacking lung model group are given with normal saline under the same conditions; the interferon α2b positive drug group is inhaled with the original drug solution by atomization, and each time is 20 min. It is administered once a day for 3 consecutive days. On the 4-th day of the infection, autopsy is performed after being weighed, and the following indicators are observed and detected.
(§3) 2.4.4 Detection of Gastrin (GAS), Motilin (MTL) in Mouse Serum and Inflammatory Factor in Lung Tissue (ELISA Method)
After dissection, mouse […] is placed at a room temperature for 30 min, and centrifuged at 3000×g for 10 min, and a supernatant is absorbed into a new eppendorf (ep) tube and stored at −20° C. During the detection, it is operated according to kit instructions, and a microplate reader detects each index at 450 nm of the absorbance.

[2] = test system: human coronavirus (HCoV-229E); format: in vivo
[3] = test system: inflammatory factors IL-6, IL-10, TNF-α, INF-γ in lung tissue; assay: Inflammatory factor content in lung tissue (ELISA), same mouse model; format: in vivo, BALB/c mice
Description: as §1, §2, §3
Lung tissue homogenate sample: after weighing the lung tissue from the mouse, the mouse lung tissue is collected and stored at […]. After weighing 50 mg of the lung tissue and adding 500 μL of normal saline, the tissue is homogenized with an ultrasonic cell disruptor, and centrifuged at […] at 1000 xg for 10 minutes with a lower-temperature high-speed centrifuge. After the supernatant is absorbed, it is separately packaged, and stored in the −80° C. refrigerator for later use. Repeated freezing and thawing is avoided. During the detection, it is operated according to the kit instructions, and the microplate reader detects each index at 450 nm of the absorbance.

[4] = chloroquine phosphate Id: 0.18 g/kg/d, 2~3 d: 0.09 g/kg/d
[5] = chloroquine phosphate Id: 0.18 g/kg/d, 2~3: 0.09 g/kg/d
[6] = interferon α2b 300 million IU, 20 min

CCN(CC)CCCC(C)Nc1ccnc2cc(Cl)ccc12 (centres unmarked) [Chloroquine phosphate]
CD4+/CD8+ (peripheral blood) [1, 4]: 1.65 ± 0.23
Percentage of immune cells in peripheral blood B cell [1, 4]: 15.72 ± 2.24%
Percentage of immune cells in peripheral blood CD4+T cell [1, 4]: 32.47 ± 4.65%
Percentage of immune cells in peripheral blood CD8+T cell [1, 4]: 20.03 ± 3.68 %
Viral load (lung tissue) (HCoV-229E nucleic acid; [4]): 56027.66 ± 31638.92
Factor content in serum GAS (GAS, MTL in mouse serum; [5]): 8.75 ± 1.41 pg/mL
Factor content in serum MTL (GAS, MTL in mouse serum; [5]): 105.69 ± 16.85 pg/mL
Inhibition rate % (of lung index) ([2]; chloroquine phosphate Id: 0.18 g/kg/d, 2-3: 0.09 g/kg/d): 9.82%
Lung index (Lung weight/100 g body weight) ([2]; chloroquine phosphate Id: 0.18 g/kg/d, 2-3: 0.09 g/kg/d, gavage): 0.85 ± 0.11
Inflammatory factor content in lung tissue IL-6 [3, 4]: 149.98 ± 29.37 pg/mL
Inflammatory factor content in lung tissue IL-10 [3, 4]: 52.54 ± 29.40 pg/mL
Inflammatory factor content in lung tissue INF-γ [3, 4]: 2.77 ± 3.48 pg/mL
Inflammatory factor content in lung tissue TNF-α [3, 4]: 38.33 ± 9.62 pg/mL

Interferon α2b
CD4+/CD8+ (peripheral blood) [1, 6]: 1.92 ± 0.63
Percentage of immune cells in peripheral blood CD4+T cell [1, 6]: 35.17 ± 4.24%
Percentage of immune cells in peripheral blood CD8+T cell [1, 6]: 19.68 ± 4.53 %
Percentage of immune cells in peripheral blood B cell ([1]; interferon α2b, 20 min): 6.40 ± 0.98%
Viral load (lung tissue) (HCoV-229E nucleic acid; [6]): 63758.38 ± 17530.19
Factor content in serum GAS (GAS, MTL in mouse serum; [6]): 8.94 ± 1.07 pg/mL
Factor content in serum MTL (GAS, MTL in mouse serum; [6]): 115.43 ± 7.90 pg/mL
Inhibition rate % (of lung index) ([2]; interferon α2b 3 million IU, 20 min): 40.38%
Lung index (Lung weight/100 g body weight) ([2]; interferon α2b 3 million IU, 20 min, atomization inhalation): 0.79 ± 0.11
Inflammatory factor content in lung tissue TNF-α [3, 6]: 33.86 ± 8.72 pg/mL
Inflammatory factor content in lung tissue IL-6 ([3]; interferon α2b, 20 min): 199.07 ± 38.37 pg/mL
Inflammatory factor content in lung tissue IL-10 ([3]; interferon α2b, 20 min): 102.25 ± 58.14 pg/mL
Inflammatory factor content in lung tissue INF-γ ([3]; interferon α2b, 20 min): 4.20 ± 3.39 pg/mL
